Laboratory results: paper PMC9806845, “Recombinant actin-depolymerizing factor of the apicomplexan Neospora caninum (NcADF) is susceptible to oxidation” (Frontiers in Cellular and Infection Microbiology, 2022)

Molecular target: T1, NcADF (Neospora caninum, UniProt F0VCT8)
T1 construct: gene NCLIV_012510; N-terminal 6xHis tag, pET28(a), E. coli BL21(DE3), IMAC; 18 kDa; cysteines at 11, 58, 65, 75; TCEP-reduced before assay
T1 sequence (F0VCT8 1-118): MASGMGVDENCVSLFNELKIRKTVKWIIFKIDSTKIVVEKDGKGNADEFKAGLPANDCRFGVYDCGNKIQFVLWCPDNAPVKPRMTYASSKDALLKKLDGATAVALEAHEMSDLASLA
Test: DTNB free-thiol assay; also biotin-iodoacetamide alkylation and SDS-PAGE dimerization
Assay type: biochemical
Conditions: covalent (cysteine oxidation, reversible disulfide dimers); 25 uM protein, 20 mM Tris pH 7.0, 30 min

O=S(=O)(O)CCNCl [NCT, N-chlorotaurine]
DTNB free-thiol assay; also biotin-iodoacetamide alkylation and SDS-PAGE dimeriz: micromolar concentration of NCT, but not of H2O2, was sufficient to oxidize the protein
